Values quoted from earlier work in patent US11686722B2, “Compositions and methods to detect molecules in a sample” (Infusense Corp., priority 2016, dated 2023).
Where two headings read alike, the source gives them in different places.

Experiments:
[1] = neutral pH, shake-flask methodology
[2] = neutral pH, reverse-phase HPLC estimation

SMILES | time until metabolite appears in the urine, typical (following a dose of THC, urine) | time until metabolite appears in the urine, longest (following a dose of THC, urine, can take as long as) | clearance half-life (in vivo) | detectability in urine (urine) | n-octanol/water partition coefficient (KOW) [1] | n-octanol/water partition coefficient (KOW) [2]
CCCCCc1cc(O)c2c(c1)OC(C)(C)C1CCC(C(=O)O)=CC21 (stereo not drawn) [11-nor-9-carboxy-THC, 11-nor-9-carboxy-tetrahydrocannabinol] | ≤ 1 h | ≤ 4 h | – | – | – | –
CCCCCc1cc(O)c2c(c1)OC(C)(C)[C@@H]1CCC(C)=C[C@@H]21 [THC, Δ^9-tetrahydrocannabinol] | – | – | less than 30 minutes | not detectable in urine | 6000 | 9,440,000
